Reference: patent US10391196B2, “Prefabricated alginate-drug bandages” (President and Fellows of Harvard College, priority 2013, dated 2019)
Entries after “also recorded” stand apart in the source; their conditions may differ.

Key:
[1] = Release of model drugs from 4% (w/v) alginate pieces; type: physicochemical; conditions: 4% (w/v) alginate pieces 8 mm diameter, 2 mm thick, cross-linked 15 minutes
Procedure: Drug release was recorded for 4% (w/v) alginate pieces 8 mm in diameter and 2 mm in thickness that were cross-linked for 15 minutes. […] (Sample size of study n=3 per time point).

[2] = Substance P release from alginate bandage sheets in PBS, measured by ELISA; type: physicochemical; conditions: 2% (w/v) and 4% (w/v) bandaging sheets; 8 mm diameter, 2 mm thick sample in 2 mls PBS
Procedure: The release was performed by placing the bandage sample of 8 mm diameter and 2 mm thickness in 2 mls of PBS and moving it to a new solution at defined time intervals. The release was examined using a commercially available ELISA assay. […] The sheets incorporate either 32 μg or 64 μg of Substance P with a given processing loss (Sample size n=3 per time point). Small molecule compounds (less than 1000 daltons) are typically added to the composition in a volume of 250 μl for a dressing that is about 12 mm in diameter and 2 mm thick. Thus, substance P was added at 128 μg/ml at the low concentration and 256 μg/ml at the higher concentration. Actual clinical doses are the same or similar. Since small molecules may diffuse out of the dressing quickly, it is advantageous for small molecules to have an affinity for the alginate, e.g., since alginate is negatively charged, positively charged small molecule drugs elute at a clinically acceptable and beneficial rate (and consistent with standard practice for changing of wound dressings). For example, substance P is slightly positively charged and is therefore attracted to the alginate. Charge is less or not relevant for larger molecules, e.g., BSA. Generally, the dose is determined based on the therapeutic dose of the drug. For example, VEGF is administered to the dressing at about 50 μg/ml (3 μg in 60 μl of liquid).

Compound	release profile from the alginate dressing material [1]	loss during wetting step [1]	duration of sustained release of the peptide from the bandage [2]
O=C1c2c(O)ccc(O)c2C(=O)c2c(NCCNCCO)ccc(NCCNCCO)c21 [mitoxantrone, Mitoxantrone]	sustained release from the scaffold, which is still ongoing at the termination of the experiment	–	–
Cc1cc(-c2ccc(/N=N/c3c(S(=O)(=O)O)cc4cc(S(=O)(=O)O)cc(N)c4c3O)c(C)c2)ccc1/N=N/c1c(S(=O)(=O)O)cc2cc(S(=O)(=O)O)cc(N)c2c1O [trypan blue dye, Trypan blue]	lost very rapidly; also recorded: the majority within one day	24%	–
Arg-Pro-Lys-Pro-Gln-Gln-Phe-Phe-Gly-Leu-Met [Substance P]	–	–	at least 3 days
